Experimental findings from ChEMBL document CHEMBL1133289, “The binding of cocaine to cyclodextrins” (Bioorg Med Chem Lett, 2000) are described below.

Assay [1] can be described thus: Binding constant towards Beta-cyclodextrin.
Assay [2] can be described thus: (§1) Binding constant towards Beta-cyclodextrin at pH 7.4 in unbuffered water at 25 C in a one-to-one complex.
Assay [3] is described as follows: as §1. The source holds these as a separate data set.
A short description of assay [4]: Binding constant towards gamma-cyclodextrin.
A short description of assay [5]: Binding constant towards alpha-cyclodextrin.

A value given as a limit tells only on which side of the number the result lay.

Compound `CN1[C@@H]2CC[C@H]1C[C@H](OC(=O)c1ccccc1)C2` (stereo in doubt; 8) yielded a Binding constant in assay [1] of 1120 M⁻¹.
In assay [1], `CN1[C@@H]2CC[C@H]1C[C@H](OC(=O)c1ccccc1)C2` (stereo in doubt; 9) returned a Binding constant of 500 M⁻¹.
In general, Kd refers to the concentration at which binding is half-saturated. Compound `COC(=O)[C@H]1[C@@H](OC(=O)c2ccccc2)C[C@@H]2CC[C@H]1N2C` [COCAINE] came in with an equilibrium dissociation constant (Kd) in assay [2] of 1750 µM. For the same compound, the figures for the Binding constant in assay [3], in assay [4] and in assay [5] were 570 M⁻¹, below 60 M⁻¹ and below 60 M⁻¹, respectively.
